Assays:
[1] = Solubility and mixing of protectors in the base pharmaceutical composition; conditions: for Solubility in the base pharmaceutical composition: 0.95% w/w Fluralaner in Transcutol V and Tween 80 25:75
Experimental: To the base of a pharmaceutical composition as described herein, comprising isoxazoline, solvent, and surfactant, different compounds were added as protectors to prevent breakdown of isoxazoline when diluted in water with a water sanitizer such as hypochlorite.
Where the protector amount was zero, this sample served as unprotected control sample. The Fluralaner level was determined using UHPLC. The alpha-tocopherol used was alpha-tocopherol EP (Fluka).
For samples containing a protector, Fluralaner was added to a mixture of Transcutol V, Tween 80 and protector, and then mixed to dissolve.

[2] = Accelerated stability testing of pharmaceutical composition comprising a protector; assay type: physicochemical; conditions: for Appearance of the pharmaceutical composition with protector on storage: stability results up to 4 months, tests terminated
Experimental: Similar to the experiments described in Example 3 above, where the effect of water quality on Fluralaner-containing medicated drinking water was tested; here samples of the pharmaceutical composition were tested for an effect of the addition of a protector, on their stability during prolonged storage.
To test the long term stability of the pharmaceutical composition with a protector, some samples were stored under conditions of accelerated ageing. Samples of the pharmaceutical composition with or without one of the protectors, were filled out in portions of 7 gram each, in 10 ml glass vials, sealed with rubber stoppers, and stored under different conditions: 2-8° C.; 30° C./65% RH; 40° C./75% RH, and 50° C. […]

[3] = Prevention of degradation by oxidizing sanitizer (hypochlorite) in medicated drinking water; assay type: physicochemical; conditions: for Colour during incubation in sanitized water: a few days into the incubation
Experimental: The Fluralaner level was determined using UHPLC. The alpha-tocopherol used was alpha-tocopherol EP (Fluka).
To prepare the test samples, the required amounts of Transcutol and Tween were measured, combined in a beaker at room temperature, and mixed magnetically. Next, when no protector was added, the required amount of Fluralaner was weighed, added, and mixed until complete dissolution, which usually required about 10 minutes, at 70% speed. […] The complete dissolution was verified visually. Next the density of the resulting solution was checked with a Densimeter, at 20° C.
To test the capacity of the different protectors to prevent degradation of Fluralaner in medicated drinking water by an oxidising sanitizer, samples of the pharmaceutical composition as prepared above were diluted to different concentrations, and incubated with different amounts of hypochlorite. Concentrations of Fluralaner in medicated drinking water used were: 1, 5, and 10 μg/ml.
The hypochlorite used was from a 13% sodium hypochlorite solution (Acros Organics), which was prepared into samples with a concentration of hypochlorite of: 0, 0.5, 2, 5, or 10 ppm, wherein 1 ppm equals 20 μM. Samples without hypochlorite served as positive controls. While the dilutions of hypochlorite were made in purified water, one additional sample at 5 ppm hypochlorite was prepared in standard tap water (Angers, France). Control samples were tested at day zero, all others were tested after an incubation for 7 days at 40° C./75% RH.
The concentration of protector in the test sample was dependent of the dilution factor of the concentrated Fluralaner composition applied: 1:10,000, 1:2000, or 1:1000, respectively.

## O=S([O-])[O-].[Na+].[Na+] [Na-sulphite, Sodium sulphite]
[1]
  Solubility in the base pharmaceutical composition: not soluble

## CCCCCCCCCCCCOC(=O)c1cc(O)c(O)c(O)c1 [Lauryl gallate, dodecyl gallate]
[2]; shortly after preparation
  Appearance of the pharmaceutical composition with protector: orange coloration appeared
[1]
  Appearance after mixing in the base pharmaceutical composition: orange coloration
  Solubility in the base pharmaceutical composition: soluble

## Cc1cc(C(C)(C)C)c(O)c(C(C)(C)C)c1 [BHT, butylated hydroxytoluene]
[3]
  Colour during incubation in sanitized water: colour change did develop
[2]
  Appearance of the pharmaceutical composition with protector on storage: discoloration
[1]
  Solubility in the base pharmaceutical composition: soluble

## Cc1c(C)c2c(c(C)c1O)CC[C@@](C)(CCC[C@H](C)CCC[C@H](C)CCCC(C)C)O2 [alpha-tocopherol]
[3]; Fluralaner 1 μg/ml and 10 ppm hypochlorite, 7 days
  Protection of Fluralaner from degradation in sanitized drinking water: could not protect
[3]; Fluralaner at 5 or 10 μg/ml, up to 7 days, 40° C., up to 10 ppm hypochlorite
  Protection of Fluralaner from degradation in sanitized drinking water: completely protect
[2]; stability data up to 18 months
  Stability of pharmaceutical composition, interaction by protector: lack of interaction
[2]; up to 8 months, 2-8° C., 30° C./65% RH, 40° C./75% RH, 50° C.
  Level of alpha-tocopherol in pharmaceutical composition on storage: no significant reduction

## O=S([O-])S(=O)(=O)[O-].[Na+].[Na+] [Na-metabisulfite, Sodium metabisulfite]
[1]
  Solubility in the base pharmaceutical composition: not soluble

## COc1ccc(O)c(C(C)(C)C)c1 [BHA, butylated hydroxyanisole]
[3]
  Colour during incubation in sanitized water: colour change did develop
[2]
  Appearance of the pharmaceutical composition with protector on storage: discoloration
[1]
  Solubility in the base pharmaceutical composition: soluble

From patent publication US11179372B2, “Isoxazoline solution containing vitamin E for use with sanitized drinking water” (Intervet Inc., priority 2015, dated 2021)
